Data published in ChEMBL document CHEMBL1909046, “DrugMatrix in vitro pharmacology data”.

Experiments:
[1] = biological target: T1, Alpha-2A adrenergic receptor (Homo sapiens, UniProt P08913); assay type: cell membranes, Sf9, Membrane; details: for Ki: read-out: Ki; for all read-outs here: in other assays of this panel Not Active means under 50% inhibition at 10 µM
T1 sequence (P08913 whole entry): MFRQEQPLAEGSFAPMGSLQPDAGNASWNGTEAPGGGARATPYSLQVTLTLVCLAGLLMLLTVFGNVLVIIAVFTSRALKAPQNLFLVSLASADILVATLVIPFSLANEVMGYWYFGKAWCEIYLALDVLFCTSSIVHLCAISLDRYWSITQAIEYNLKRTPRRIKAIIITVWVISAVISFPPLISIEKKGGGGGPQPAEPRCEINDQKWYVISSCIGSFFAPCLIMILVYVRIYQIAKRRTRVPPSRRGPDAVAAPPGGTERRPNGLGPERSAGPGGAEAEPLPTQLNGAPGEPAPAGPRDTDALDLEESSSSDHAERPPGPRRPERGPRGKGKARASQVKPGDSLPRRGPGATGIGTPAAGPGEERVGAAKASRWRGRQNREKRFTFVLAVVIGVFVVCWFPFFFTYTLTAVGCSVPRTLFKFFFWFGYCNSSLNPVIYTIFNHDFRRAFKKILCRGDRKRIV

[2] = DRUGMATRIX: beta-Lactamase enzyme inhibition (substrate: Nitrocefin); set-up: species or system Bacillus cereus; details: Not Active = under 50% inhibition at 10 µM
[3] = biological target: 5-hydroxytryptamine receptor 6 (Homo sapiens, UniProt P50406); assay type: cell membranes, HeLa, Membrane; details: for Ki: read-out: Ki; for all read-outs here: in other assays of this panel Not Active means under 50% inhibition at 10 µM
5-hydroxytryptamine receptor 6, sequence (P50406 whole entry): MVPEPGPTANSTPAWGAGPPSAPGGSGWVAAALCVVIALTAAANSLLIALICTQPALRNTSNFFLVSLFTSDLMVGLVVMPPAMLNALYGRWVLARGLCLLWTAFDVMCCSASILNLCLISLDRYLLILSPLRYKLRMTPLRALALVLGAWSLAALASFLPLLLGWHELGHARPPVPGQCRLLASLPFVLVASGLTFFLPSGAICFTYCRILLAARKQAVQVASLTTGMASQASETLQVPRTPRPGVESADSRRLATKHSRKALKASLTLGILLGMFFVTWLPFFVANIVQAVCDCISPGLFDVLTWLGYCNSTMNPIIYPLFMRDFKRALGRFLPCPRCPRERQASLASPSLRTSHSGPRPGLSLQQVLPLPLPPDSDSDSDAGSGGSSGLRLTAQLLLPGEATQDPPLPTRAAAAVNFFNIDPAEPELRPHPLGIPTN

[4] = biological target: Carbonic anhydrase 2 (Homo sapiens, UniProt P00918); test: DRUGMATRIX: Carbonic Anhydrase II enzyme inhibition (substrate: 4-Nitrophenyl acetate (4-NPA)); assay type: tissue-based, Erythrocyte; details: erythrocyte; Not Active = under 50% inhibition at 10 µM
[5] = biological target: T2, Androgen receptor (Rattus norvegicus, UniProt P15207); note: in other assays of this panel Not Active means under 50% inhibition at 10 µM
T2 sequence (P15207 whole entry): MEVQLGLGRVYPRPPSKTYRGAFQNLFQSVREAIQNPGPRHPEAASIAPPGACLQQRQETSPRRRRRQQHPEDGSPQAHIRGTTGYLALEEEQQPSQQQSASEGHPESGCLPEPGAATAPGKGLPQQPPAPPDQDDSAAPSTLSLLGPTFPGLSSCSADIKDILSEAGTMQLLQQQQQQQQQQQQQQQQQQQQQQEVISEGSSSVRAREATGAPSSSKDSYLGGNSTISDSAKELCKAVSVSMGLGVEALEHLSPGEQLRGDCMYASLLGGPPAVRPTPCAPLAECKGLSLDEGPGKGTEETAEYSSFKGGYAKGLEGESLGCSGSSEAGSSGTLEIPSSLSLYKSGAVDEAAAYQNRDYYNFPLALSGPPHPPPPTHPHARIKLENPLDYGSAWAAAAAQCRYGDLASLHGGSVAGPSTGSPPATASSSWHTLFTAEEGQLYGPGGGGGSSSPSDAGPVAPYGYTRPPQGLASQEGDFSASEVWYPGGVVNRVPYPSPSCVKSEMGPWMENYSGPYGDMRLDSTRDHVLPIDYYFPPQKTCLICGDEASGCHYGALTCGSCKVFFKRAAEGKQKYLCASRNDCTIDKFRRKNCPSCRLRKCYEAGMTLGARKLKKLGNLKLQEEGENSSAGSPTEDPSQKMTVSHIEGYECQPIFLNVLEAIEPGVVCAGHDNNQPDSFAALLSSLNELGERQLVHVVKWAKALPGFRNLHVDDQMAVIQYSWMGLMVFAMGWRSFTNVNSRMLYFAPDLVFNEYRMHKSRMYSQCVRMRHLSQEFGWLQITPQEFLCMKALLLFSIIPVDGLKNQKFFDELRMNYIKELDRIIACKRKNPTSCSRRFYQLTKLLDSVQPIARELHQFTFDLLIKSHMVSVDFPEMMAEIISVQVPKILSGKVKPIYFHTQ

Structure (SMILES)	IC50 ([1]; sf9)	IC50 [2]	Ki [2]	IC50 ([3]; hela)	IC50 [4]	IC50 ([3]; read-out: IC50)	Ki [3]	IC50 [5]	IC50 ([1]; read-out: IC50)	Ki [1]
CC(C)(C)NC(=O)[C@@H]1C[C@@H]2CCCC[C@@H]2CN1C[C@@H](O)[C@H](Cc1ccccc1)NC(=O)[C@H](CC(N)=O)NC(=O)c1ccc2ccccc2n1	Not Active	Not Active	Not Active	Not Active	Not Active	–	–	–	–	–
N[C@@H](Cc1ccc(N(CCCl)CCCl)cc1)C(=O)O	Not Active	Not Active	Not Active	Not Active	Not Active	–	–	–	–	–
CCCCc1oc2ccccc2c1C(=O)c1cc(I)c(OCCN(CC)CC)c(I)c1 [AMIODARONE]	–	–	–	–	Not Active	19.4 µM	9.03 µM	–	–	–
OCCN(CCO)c1nc(N2CCCCC2)c2nc(N(CCO)CCO)nc(N3CCCCC3)c2n1 [DIPYRIDAMOLE]	Not Active	Not Active	Not Active	Not Active	Not Active	–	–	Not Active	–	–
c1ccc([C@H]2CN3CCSC3=N2)cc1 [LEVAMISOLE]	Not Active	Not Active	Not Active	Not Active	Not Active	–	–	–	–	–
N[C@@H](Cc1ccc(O)c(O)c1)C(=O)O [LEVODOPA]	Not Active	Not Active	Not Active	Not Active	Not Active	–	–	–	–	–
N[C@@H](Cc1cc(I)c(Oc2ccc(O)c(I)c2)c(I)c1)C(=O)O [LIOTHYRONINE]	Not Active	–	–	Not Active	Not Active	–	–	–	–	–
O=NN(CCCl)C(=O)NC1CCCCC1 [LOMUSTINE]	Not Active	Not Active	Not Active	Not Active	Not Active	–	–	–	–	–
CCOC(=O)N1CCC(=C2c3ccc(Cl)cc3CCc3cccnc32)CC1 [LORATADINE]	Not Active	Not Active	Not Active	Not Active	Not Active	–	–	–	–	–
Cn1ccnc1S [METHIMAZOLE]	Not Active	Not Active	Not Active	Not Active	Not Active	–	–	–	–	–
CC[C@@H](CO)NC(=O)[C@@H]1C=C2c3cccc4[nH]cc(c34)C[C@H]2N(C)C1 [METHYLERGONOVINE]	–	Not Active	Not Active	–	Not Active	0.00254 µM	0.00118 µM	Not Active	1.59 µM	0.596 µM
COc1nc(C)nc(Cl)c1NC1=NCCN1 [MOXONIDINE]	Not Active	Not Active	Not Active	Not Active	Not Active	–	–	–	–	–
COc1c(C)c2c(c(O)c1C/C=C(\C)CCC(=O)O)C(=O)OC2 [MYCOPHENOLIC ACID]	Not Active	Not Active	Not Active	Not Active	Not Active	–	–	–	–	–
O=c1ncn2nc(Sc3ccc(F)cc3F)ccc2c1-c1c(Cl)cccc1Cl [NEFLAMAPIMOD]	–	Not Active	Not Active	Not Active	Not Active	–	–	Not Active	34.2 µM	12.8 µM
CO[C@H]1/C=C/O[C@@]2(C)Oc3c(C)c(O)c4c(O)c(c(/C=N/N5CCN(C)CC5)c(O)c4c3C2=O)NC(=O)/C(C)=C\C=C\[C@H](C)[C@H](O)[C@@H](C)[C@@H](O)[C@@H](C)[C@H](OC(C)=O)[C@@H]1C [RIFAMPIN]	Not Active	Not Active	Not Active	Not Active	Not Active	–	–	–	–	–
Nc1nc2ccc(OC(F)(F)F)cc2s1 [RILUZOLE]	Not Active	Not Active	Not Active	Not Active	Not Active	–	–	–	–	–
